Source: patent publication EP2143422A1, “Ophthalmic compositions containing gemifloxacin for the treatment of ocular infections” (S.I.F.I - SOCIETÀ INDUSTRIA FARMACEUTICA ITALIANA - S.P.A., priority 2008, dated 2010)
Converted amounts (≈) assume the structure as drawn. Where two headings read alike, the source gives them in different places.

Columns and labels:
[1] = tested on: ocular St. aureus isolate (7786); assay: In vivo effectiveness: bacterial load (CFU/g) in cornea, bacterial keratitis model; design: species or system New Zealand albino rabbits
Method: (§1) The effectiveness and accumulation of gemifloxacin in the cornea and aqueous humour were determined in vivo after administration of the 0.3% gemifloxacin compositions (emulsion and aqueous solution) and compared to 0.3% norfloxacin and ofloxacin in aqueous solution, in New Zealand albino rabbits having been induced with bacterial keratitis (Survey of Ophthalmology, vol. 50, suppl. Nov. 2005, p.S32-S48) by intrastromal injection of an inoculum of an ocular St. aureus isolate (7786).
(§2) Male New Zealand albino rabbits were used (Harlan Italia) into which the keratitis had been induced - following anaesthesia with ketamine (37.5 mg/kg) and xylazine (10 mg/kg) by intramuscular means and novesine by topical means (2 drops per eye) - by intrasomal injection of a suspension of the ocular St. aureus isolate 7786 in PBS (Phosphate Buffered Solution). The injection was carried out using an insulin syringe with a 30-gauge needle in each cornea of each rabbit.
(§3) In the first experiment the following treatments were compared: 0.15% aqueous gemifloxacin solution, 0.3% aqueous gemifloxacin solution, 0.3% aqueous norfloxacin solution and physiological solution (0.9% NaCl) as control. The treatment was undertaken every 2 hours over 3 consecutive treatment days (5 administrations/day). The tissues were collected an hour after the last treatment, with the end point being after one day and after three days of treatment.
(§4) In the second experiment the following treatment groups were compared: 0.3% aqueous gemifloxacin solution, 0.3% gemifloxacin emulsion, 0.3% aqueous ofloxacin solution and physiological solution (0.9% NaCl) as control. The treatment was carried out every hour for only one day of treatment (7 administrations/day). The tissues were collected from the animals in each group, killed one hour after the last treatment.
All the compositions used in the two experiments described were administered at 50 µl per treatment.
The bacterial load of each sample was determined by counting CFUs (Colony Forming Units) on a filter and plate, to be reported as CFU/g of tissue.

St. epidermidis = assay: E-test (Epsilometer-test), in vitro antibacterial effectiveness; type: cell-based; conditions: Staphylococcus epidermidis; 29 ocular isolates of St. epidermidis
Source text: (§5) In order to assay the effectiveness of gemifloxacin against the most representative pathogenic strains in ophthalmic infections, its activity was verified in vitro, in terms of MIC50 and MIC90 with the E-test method described by V. Lorian in "Antibiotics in laboratory medicine" (IV ed. 1996, 23-28) and compared to moxifloxacin, ciprofloxacin, levofloxacin and ofloxacin against 85 ocular bacterial isolates subdivided as follows: • 27 St. aureus, 29 S. epidermidis, 16 Coagulase Negative Staphylococci (CNS), 8 Ps. aeruginosa and 5 Serratia marcescens. The following ATCC bacterial strains were also included: Staphylococcus aureus 25923, Staphylococcus aureus 29213, Staphylococcus aureus 43300, S. epidermidis 35984, Pseudomonas aeruginosa 27853 and Pseudomonas aeruginosa 9027.
(§6) The staphylococci also included methicillin resistant strains (MRSA and MRSE).

St. aureus [2] = assay: as above; type: cell-based; conditions: 27 ocular isolates of St. aureus
Source text: as §5, §6

St. coagulase negative = assay: as above; type: cell-based, Coagulase Negative Staphylococci (CNS); conditions: 16 ocular isolates
Source text: as §5, §6

Ps. aeruginosa = assay: as above; type: cell-based; conditions: Pseudomonas aeruginosa; 8 ocular isolates of Ps. aeruginosa
Source text: (§7) In order to assay the effectiveness of gemifloxacin against the most representative pathogenic strains in ophthalmic infections, its activity was verified in vitro, in terms of MIC50 and MIC90 with the E-test method described by V. […] The following ATCC bacterial strains were also included: Staphylococcus aureus 25923, Staphylococcus aureus 29213, Staphylococcus aureus 43300, S. epidermidis 35984, Pseudomonas aeruginosa 27853 and Pseudomonas aeruginosa 9027.

Serratia marcescens = assay: as above; type: cell-based; conditions: 5 ocular isolates of Serratia marcescens
Source text: as §7

[3] = In vivo pharmacokinetic test: ocular tissue distribution after single ophthalmic administration; design: species or system pigmented rabbits; conditions: rabbit, topical, 30 µl of 0.3% solution per eye
Method: The penetration capacity of gemifloxacin was determined in the cornea, conjunctiva, aqueous humour and iris-ciliary body after single ophthalmic administration (30 µl) of the solution at 0.3% in both eyes of pigmented rabbits. The tissues were collected at the following times: 15 minutes, 30 minutes, 1, 2, 4, 8, 12, 24 and 48 hours. Quantitative analysis of the samples was carried out by a LC/MS/MS method after suitable extraction of the active principle from the tissue and expressed as µg/g or µg/ml of tissue.

[4] = design: species or system New Zealand albino rabbits; conditions: male, New Zealand albino, rabbit, in vivo
Method: as §1, §2, §3, §4
All the compositions used in the two experiments described were administered at 50 µl per treatment. […]
The fluorescence value obtained was interpolated using the relative standard curve and expressed as nanograms/ml or nanograms/g of tissue.

St. aureus [5] = conditions: literature, cited from earlier work
[6] = first experiment, 0.3% aqueous solution, every 2 hours, 5 administrations/day, after one and three days, compared with control (gemifloxacin also vs norfloxacin)
[7] = Staphylococcus aureus, read-out: MIC90
[8] = conjunctiva, single ophthalmic administration (30 µl) of 0.3% solution
[9] = cornea, single ophthalmic administration (30 µl) of 0.3% solution

SMILES | reduction in bacterial load in the cornea [1, 6] | MIC50 (St. epidermidis) | MIC90 (St. epidermidis) | MIC50 (St. aureus [2]; Staphylococcus aureus) | MIC90 (St. aureus [2]; [7]) | MIC50 (St. coagulase negative) | MIC90 (St. coagulase negative) | MIC50 (Ps. aeruginosa) | MIC90 (Ps. aeruginosa) | MIC50 (Serratia marcescens) | MIC90 (Serratia marcescens) | concentration in the cornea relative to MIC for St. aureus [4] | further results
CO/N=C1\CN(c2nc3c(cc2F)c(=O)c(C(=O)O)cn3C2CC2)CC1CN (racemic) [Gemifloxacin, (R,S)-7-(3-aminomethyl-4-methoxyiminopyrrolidin-1yl)-1-cyclopropyl-6-fluoro-4-oxo-1,4-dihydro-1,8-naphthyridin-3-carboxylic acid] | statistically significant reduction in bacterial load | 0.023 µg/mL (≈ 0.0591 µM) | 0.094 µg/mL (≈ 0.241 µM) | 0.032 µg/mL (≈ 0.0822 µM) | 0.064 µg/mL (≈ 0.164 µM) | 0.016 µg/mL (≈ 0.0411 µM) | 0.047 µg/mL (≈ 0.121 µM) | 0.125 µg/mL (≈ 0.321 µM) | 0.25 µg/mL (≈ 0.642 µM) | 0.125 µg/mL (≈ 0.321 µM) | 0.19 µg/mL (≈ 0.488 µM) | – | reduction in bacterial load in the cornea ([1]; first experiment, 0.15% aqueous solution, every 2 hours, 5 administrations/day, after one and three days, compared to control and 0.3% norfloxacin): statistically significant reduction in bacterial load; reduction in bacterial load in the cornea ([1]; second experiment, 0.3% aqueous solution, every hour, 7 administrations, one day, compared to control): statistically significantly reduce; reduction in bacterial load in the cornea ([1]; second experiment, 0.3% emulsion, every hour, 7 administrations, one day, compared to control): statistically significantly reduce; reduction in bacterial load relative to the reduction effected by ofloxacin ([1]; second experiment, gemifloxacin-containing compositions (0.3% aqueous solution and 0.3% emulsion) vs 0.3% ofloxacin solution): statistically significant; Cmax ([3]; aqueous humour, single administration of 0.3% aqueous solution, healthy eyes): 26 ng/mL; Tmax ([3]; aqueous humour, single ophthalmic administration (30 µl) of 0.3% solution): 2 h; Cmax ([3]; conjunctiva, single administration of 0.3% aqueous solution, healthy eyes): 980 ng/mL; Cmax [3, 8]: 980 ng/g; Tmax [3, 8]: 0.25 h; Cmax ([3]; cornea, single administration of 0.3% aqueous solution, healthy eyes): 2600 ng/mL; Cmax [3, 9]: 2600 ng/g; Tmax [3, 9]: 0.25 h; Cmax ([3]; iris-ciliary body, single administration of 0.3% aqueous solution, healthy eyes): 460 ng/g; Tmax ([3]; iris-ciliary body, single ophthalmic administration (30 µl) of 0.3% solution): 2 h
O=C(O)c1cn(C2CC2)c2cc(N3CCNCC3)c(F)cc2c1=O [Ciprofloxacin] | – | 0.19 µg/mL (≈ 0.573 µM) | 0.5 µg/mL (≈ 1.51 µM) | 0.5 µg/mL (≈ 1.51 µM) | > 32 µg/mL | 0.25 µg/mL (≈ 0.754 µM) | 0.25 µg/mL (≈ 0.754 µM) | 0.125 µg/mL (≈ 0.377 µM) | 0.25 µg/mL (≈ 0.754 µM) | 0.064 µg/mL (≈ 0.193 µM) | 0.125 µg/mL (≈ 0.377 µM) | – | –
C[C@H]1COc2c(N3CCN(C)CC3)c(F)cc3c(=O)c(C(=O)O)cn1c23 [Levofloxacin] | – | 0.19 µg/mL (≈ 0.526 µM) | 0.38 µg/mL (≈ 1.05 µM) | 0.25 µg/mL (≈ 0.692 µM) | 0.75 µg/mL (≈ 2.08 µM) | 0.25 µg/mL (≈ 0.692 µM) | 0.25 µg/mL (≈ 0.692 µM) | 0.5 µg/mL (≈ 1.38 µM) | 0.75 µg/mL (≈ 2.08 µM) | 0.125 µg/mL (≈ 0.346 µM) | 0.25 µg/mL (≈ 0.692 µM) | – | –
COc1c(N2C[C@@H]3CCCN[C@@H]3C2)c(F)cc2c(=O)c(C(=O)O)cn(C3CC3)c12 [Moxifloxacin] | – | 0.047 µg/mL (≈ 0.117 µM) | 0.094 µg/mL (≈ 0.234 µM) | 0.064 µg/mL (≈ 0.159 µM) | 0.38 µg/mL (≈ 0.947 µM) | 0.047 µg/mL (≈ 0.117 µM) | 0.094 µg/mL (≈ 0.234 µM) | 0.5 µg/mL (≈ 1.25 µM) | 1 µg/mL (≈ 2.49 µM) | 0.19 µg/mL (≈ 0.473 µM) | 0.38 µg/mL (≈ 0.947 µM) | – | –
CC1COc2c(N3CCN(C)CC3)c(F)cc3c(=O)c(C(=O)O)cn1c23 (stereo not shown) [Ofloxacin] | – | 0.25 µg/mL (≈ 0.692 µM) | 16 µg/mL (≈ 44.3 µM) | 0.5 µg/mL (≈ 1.38 µM) | 1.5 µg/mL (≈ 4.15 µM) | 0.25 µg/mL (≈ 0.692 µM) | 0.5 µg/mL (≈ 1.38 µM) | 0.5 µg/mL (≈ 1.38 µM) | 1 µg/mL (≈ 2.77 µM) | 0.19 µg/mL (≈ 0.526 µM) | 0.38 µg/mL (≈ 1.05 µM) | near to its MIC50 | MIC90 (St. aureus [2]): 1.5 µg/mL (≈ 4.15 µM); MIC90 (St. aureus [2]; listed as ofloxacin): 1.15 µg/mL (≈ 3.18 µM); concentration in the aqueous humour [4]: about 1.5 µg/ml
CCn1cc(C(=O)O)c(=O)c2cc(F)c(N3CCNCC3)cc21 [norfloxacin] | does not lead to a reduction in bacterial load | – | – | – | – | – | – | – | – | – | – | lower corneal concentrations than its MIC50-MIC90 range | MIC50 (St. aureus [5]; lower end of MIC50-MIC90 range for St. aureus): 0.5 µg/mL (≈ 1.57 µM); MIC90 (St. aureus [5]; upper end of MIC50-MIC90 range for St. aureus): 2 µg/mL (≈ 6.26 µM)
